# From US20260115346A1, “METHOD AND DEVICE FOR DI[…]/OR S[…]” (SCHWING TECHNOLOGIES GMBH, priority 2022, published 2026)
# Experiments:
# [1] = tested on: spores of the bacterium Geobacillus stearothermophilis; assay: Validation tests for disinfection of spore strips SAL 10^5; format: cell-based, Geobacillus stearothermophilus; conditions: for Biological result #not sterile/#tested: 50-55° C.
# [2] = tested on: spores of the bacterium Geobacillus stearothermophilis; assay: Validation tests for disinfection of laboratory utensils dripped with spore suspension SAL 10^6; format: cell-based, Geobacillus stearothermophilus; conditions: for Biological result #not sterile/#tested: PES in solution 4%
# germs = assay: Disinfection and sterilization process on various objects, number of germs after treatment; conditions: 55° C., 20 mbar; for Number of germs/m^3 after disinfection: 1.5 g/m^3 PES, 15 min; for Number of germs/m^3 after sterilization: 4 g/m^3 PES, 30 min
# Description: Various objects were treated with the method according to the invention in order to disinfect and sterilize them.
# The following process parameters were used in the disinfection process:
# The following process parameters were used in the sterilization process: […]
# [3] = tested on: human patellar tendon allografts; conditions: in vitro study; cited from earlier work
# [4] = object: Mobile electronic display device
compound,measurement,setting,value
"CC(=O)OO [PES, peracetic acid]",subsequent growth or multiplication of the spores,[1]; all the spore strips tested at different PES concentrations and different process times,No subsequent growth or multiplication of the spores could be detected
same,Biological result #not sterile/#tested,"[1]; test 1, PES in solution 6%, 3 g/m^3 PES in process chamber, 240 min",0/2
same,Biological result #not sterile/#tested,"[1]; test 2, PES in solution 6%, 3 g/m^3 PES in process chamber, 120 min",0/1
same,Biological result #not sterile/#tested,"[1]; test 3, PES in solution 6%, 1.7 g/m^3 PES in process chamber, 150 min",0/2
same,Biological result #not sterile/#tested,"[1]; test 4, PES in solution 4%, 2 g/m^3 PES in process chamber, 120 min",0/1
same,Biological result #not sterile/#tested,"[1]; test 5, PES in solution 4%, 1.9 g/m^3 PES in process chamber, 120 min",0/2
same,Biological result #not sterile/#tested,"[1]; test 6, PES in solution 4%, 1.9 g/m^3 PES in process chamber, 90 min",0/2
same,Biological result #not sterile/#tested,"[1]; test 7, PES in solution 4%, 1.9 g/m^3 PES in process chamber, 60 min",0/4
same,Biological result #not sterile/#tested,"[1]; test 8, PES in solution 4%, 1.9 g/m^3 PES in process chamber, 45 min",0/1
same,Biological result #not sterile/#tested,"[1]; test 9, PES in solution 4%, 1.9 g/m^3 PES in process chamber, 40 min",0/2
same,Biological result #not sterile/#tested,"[1]; test 10, PES in solution 4%, 1.9 g/m^3 PES in process chamber, 30 min",0/2
same,Biological result #not sterile/#tested,"[1]; test 11, PES in solution 4%, 1.9 g/m^3 PES in process chamber, 20 min",0/2
same,Biological result #not sterile/#tested,"[1]; test 12, PES in solution 4%, 1.9 g/m^3 PES in process chamber, 15 min",0/1
same,Biological result #not sterile/#tested,"[1]; test 13, PES in solution 4%, 1.9 g/m^3 PES in process chamber, 10 min",0/1
same,Biological result #not sterile/#tested,"[1]; test 14, PES in solution 4%, 1.9 g/m^3 PES in process chamber, 5 min",0/1
same,Biological result #not sterile/#tested,"[1]; test 15, PES in solution 4%, 1.7 g/m^3 PES in process chamber, 20 min",0/1
same,Biological result #not sterile/#tested,"[1]; test 16, PES in solution 4%, 1.7 g/m^3 PES in process chamber, 15 min",0/1
same,Biological result #not sterile/#tested,"[1]; test 17, PES in solution 4%, 1.5 g/m^3 PES in process chamber, 240 min",0/2
same,Biological result #not sterile/#tested,"[1]; test 18, PES in solution 4%, 1.5 g/m^3 PES in process chamber, 150 min",0/2
same,Biological result #not sterile/#tested,"[1]; test 19, PES in solution 4%, 1.3 g/m^3 PES in process chamber, 20 min",0/1
same,Biological result #not sterile/#tested,"[1]; test 20, PES in solution 4%, 1.3 g/m^3 PES in process chamber, 15 min",0/1
same,Biological result #not sterile/#tested,"[1]; test 21, PES in solution 4%, 0.94 g/m^3 PES in process chamber, 60 min",0/5
same,Biological result #not sterile/#tested,"[1]; test 22, PES in solution 4%, 0.94 g/m^3 PES in process chamber, 40 min",0/1
same,Biological result #not sterile/#tested,"[1]; test 23, PES in solution 4%, 0.94 g/m^3 PES in process chamber, 30 min",0/2
same,Biological result #not sterile/#tested,"[1]; test 24, PES in solution 4%, 0.94 g/m^3 PES in process chamber, 20 min",0/2
same,Biological result #not sterile/#tested,"[1]; test 25, PES in solution 4%, 0.94 g/m^3 PES in process chamber, 15 min",0/1
same,Biological result #not sterile/#tested,"[1]; test 26, PES in solution 4%, 0.94 g/m^3 PES in process chamber, 10 min",0/1
same,Biological result #not sterile/#tested,"[1]; test 27, PES in solution 4%, 0.94 g/m^3 PES in process chamber, 5 min",0/1
same,Biological result #not sterile/#tested,"[1]; test 28, PES in solution 4%, 0.47 g/m^3 PES in process chamber, 60 min",0/1
same,Biological result #not sterile/#tested,"[1]; test 29, PES in solution 4%, 0.47 g/m^3 PES in process chamber, 30 min",0/1
same,Biological result #not sterile/#tested,"[1]; test 30, PES in solution 4%, 0.47 g/m^3 PES in process chamber, 15 min",0/1
same,Biological result #not sterile/#tested,"[1]; test 31, PES in solution 4%, 0.47 g/m^3 PES in process chamber, 10 min",0/1
same,Biological result #not sterile/#tested,"[1]; test 32, PES in solution 4%, 0.47 g/m^3 PES in process chamber, 5 min",0/1
same,Biological result #not sterile/#tested,"[2]; test 5, 1.9 g/m^3 PES in process chamber, 120 min, growth after seven days",0/4
same,Biological result #not sterile/#tested,"[2]; test 7, 1.9 g/m^3 PES in process chamber, 60 min, growth after seven days",0/4
same,Biological result #not sterile/#tested,"[2]; test 8, 1.9 g/m^3 PES in process chamber, 45 min, growth after seven days",0/4
same,Biological result #not sterile/#tested,"[2]; test 12, 1.9 g/m^3 PES in process chamber, 15 min, growth after seven days",0/4
same,Biological result #not sterile/#tested,"[2]; test 13, 1.9 g/m^3 PES in process chamber, 10 min, growth after seven days",0/4
same,Biological result #not sterile/#tested,"[2]; test 14, 1.9 g/m^3 PES in process chamber, 5 min, growth after seven days",0/4
same,Biological result #not sterile/#tested,"[2]; test 15, 1.7 g/m^3 PES in process chamber, 20 min, growth after seven days",0/4
same,Biological result #not sterile/#tested,"[2]; test 16, 1.7 g/m^3 PES in process chamber, 15 min, growth after seven days",0/4
same,Biological result #not sterile/#tested,"[2]; test 19, 1.3 g/m^3 PES in process chamber, 20 min, growth after seven days",0/4
same,Biological result #not sterile/#tested,"[2]; test 20, 1.3 g/m^3 PES in process chamber, 15 min, growth after seven days",0/4
same,Biological result #not sterile/#tested,"[2]; test 21, 0.94 g/m^3 PES in process chamber, 60 min, growth after seven days",0/4
same,Biological result #not sterile/#tested,"[2]; test 22, 0.94 g/m^3 PES in process chamber, 40 min, growth after seven days",0/4
same,Biological result #not sterile/#tested,"[2]; test 23, 0.94 g/m^3 PES in process chamber, 30 min, not sterile: pipette",(pipette) 1/8
same,Biological result #not sterile/#tested,"[2]; test 24, 0.94 g/m^3 PES in process chamber, 20 min, growth after seven days",0/8
same,Biological result #not sterile/#tested,"[2]; test 25, 0.94 g/m^3 PES in process chamber, 15 min, not sterile: pipette",(pipette) 1/4
same,Biological result #not sterile/#tested,"[2]; test 26, 0.94 g/m^3 PES in process chamber, 10 min, growth after seven days",0/4
same,Biological result #not sterile/#tested,"[2]; test 27, 0.94 g/m^3 PES in process chamber, 5 min, not sterile: pipette",(pipette) 1/4
same,Biological result #not sterile/#tested,"[2]; test 28, 0.47 g/m^3 PES in process chamber, 60 min, growth after seven days",0/4
same,Biological result #not sterile/#tested,"[2]; test 29, 0.47 g/m^3 PES in process chamber, 30 min, growth after seven days",0/4
same,Biological result #not sterile/#tested,"[2]; test 30, 0.47 g/m^3 PES in process chamber, 15 min, not sterile: Eppi",(Eppi) 1/4
same,Biological result #not sterile/#tested,"[2]; test 31, 0.47 g/m^3 PES in process chamber, 10 min, not sterile: pipette",(pipette) 1/4
same,Biological result #not sterile/#tested,"[2]; test 32, 0.47 g/m^3 PES in process chamber, 5 min, not sterile: mask, pipette","(mask, pipette) 2/4"
same,growth of the spores after seven days in nutrient solution,"[2]; various experiments, relatively low PES concentration in the process chamber, short process duration",spore growth was observed after seven days
same,Number of germs/m^3 after disinfection,germs; object: FFP mask,1220 germs/m^3
same,Number of germs/m^3 after sterilization,germs; object: FFP mask,germ-free
same,Number of germs/m^3 after disinfection,germs; object: Infusomat,1160 germs/m^3
same,Number of germs/m^3 after sterilization,germs; object: Infusomat,germ-free
same,Number of germs/m^3 after disinfection,germs; object: MNS,870 germs/m^3
same,Number of germs/m^3 after sterilization,germs; object: MNS,germ-free
same,Number of germs/m^3 after disinfection,germs; [4],430 germs/m^3
same,Number of germs/m^3 after sterilization,germs; [4],germ-free
same,Number of germs/m^3 after disinfection,germs; object: Surgical clogs,1370 germs/m^3
same,Number of germs/m^3 after sterilization,germs; object: Surgical clogs,germ-free
same,Number of germs/m^3 after disinfection,germs; object: blower filter unit,1740 germs/m^3
same,Number of germs/m^3 after sterilization,germs; object: blower filter unit,germ-free
same,Number of germs/m^3 after disinfection,germs; object: disposable gloves,920 germs/m^3
same,Number of germs/m^3 after sterilization,germs; object: disposable gloves,germ-free
same,Number of germs/m^3 after disinfection,germs; object: protective overalls,270 germs/m^3
same,Number of germs/m^3 after sterilization,germs; object: protective overalls,germ-free
same,Number of germs/m^3 after disinfection,germs; object: visor,360 germs/m^3
same,Number of germs/m^3 after sterilization,germs; object: visor,germ-free
same,cytotoxic or pro-inflammatory effect,[3],no cytotoxic or pro-inflammatory effect
